Test results reported in patent US20220016099A1, “BENZIMIDAZOLE OR BENZOXAZOLE DERIVATIVES FOR PREVENTING AND TREATING CENTRAL NERVOUS SYSTEM DISEASE, DIABETES, AND COMPLICATIONS THEREOF” (TRINUERO, priority 2018, published 2022).
Read-outs that look alike come from different tables or passages of the source.

System: Nrf2
Experiment: Nrf2 activity by A549-ARE luciferase assay
Type: cell-based
Details: read-out: Nrf2 activity
Description: Example 1: Method for Measuring Nrf2 Activity of Benzimidazole or Benzoxazole Derivatives Using A549-ARE Luciferase Assay
An assay for Nrf2 activity was performed by modification of the method reported in Ilse M. Beck et al., (2013), European Journal of Pharmacology 715. 1-9.
Specifically, A549-ARE cell line was dispensed into a 96-well plate, and then subjected to treatment with a solution obtained by dissolving 10 μM of each compound in Table 2 in dimethyl sulfoxide (DMSO). On the other hand, Compounds 1 and 13 as shown in Table 2 were obtained from Sigma-Aldrich (US); Compounds 2, 5, 8, 9 12, 15, 18 to 20, 23, 25, 30, and 32 were obtained from Tokyo Chemical Industry Co., Ltd. (JP); Compound 3 was obtained from Labseeker (CN); Compound 4 was obtained from BOC Science (US); Compounds 6 and 7 were obtained from Cambridge (US); Compounds 10, 11, 16, 17, 21, and 22 were obtained from Toronto Research Chemicals (CA); Compound 14 was obtained from Selleckchem (US); Compounds 24, 26, 27, and 31 were obtained from BLD Pharm (CN); Compounds 28 and 33 were obtained from Mcule (US); Compound 29 was obtained from Chemshuttle (US); and Compound 34 was obtained from Alinda (RU).
Thereafter, the 96-well plate was treated with 30 μl of luciferase lysis buffer (90.8 mM K2HPO4, 9.2 mM KH2PO4, 0.1% Triton X-100), and then incubated for 30 minutes or longer so that cell lysis proceeded. The incubated cell lysate was transferred to another 96-well plate (white plate), and then each well was treated with 100 μl of luciferase buffer mixture (20 mM Tricine, 1.07 mM [(MgCO3)4Mg(OH)2.5H2O], 2.67 mM [MgSO4.7H2O], 0.1 mM EDTA, 33.3 mM DTT, 270 μM coenzyme A [CoA], 500 μM D-luciferin, 530 μM ATP). Immediately after the treatment, […] was performed to check Nrf2 activity.

[1] = A549-ARE cell line, 10 μM of each compound in DMSO, Nrf2 activity (%) of compound relative to DMSO using luciferase assay

Compound `COc1ccc2[nH]c([S+]([O-])Cc3ncc(C)c(OC)c3C)nc2c1` (stereo not drawn) [Compound 1, omeprazole, reference compound] has an activity at 10 µM [1] of 0 to 30%.
For `COc1ccc2[nH]c(SCc3ncc(C)c(OC)c3C)nc2c1` [Compound 2, omeprazole sulfide], the activity at 10 µM [1] was 0 to 30%.
Work on `COc1ccc2[nH]c(S(=O)(=O)Cc3ncc(C)c(OC)c3C)nc2c1` [Compound 3, omeprazole sulfone] yielded an activity at 10 µM [1] of 0 to 30%.
`COc1ccc2[nH]c([S+]([O-])Cc3c(C)c(OC)c(C)c[n+]3[O-])nc2c1` (stereo not drawn) [Compound 4, omeprazole N-oxide] showed an activity at 10 µM [1] of 0 to 30%.
In the case of `COc1ccc2[nH]c(S)nc2c1` [Compound 5, 5-methoxy-2-benzimidazolethiol], the activity at 10 µM [1] is reported as 30 to 70%.
`COc1ccc2c(c1)nc(S)n2C` [Compound 6, 5-methoxy-1-methyl-1H-benzimidazole-2-thiol] was tested, and the activity at 10 µM [1] was 30 to 70%.
For `COc1ccc2[nH]c(SC)nc2c1` [Compound 7, 5-methoxy-2-(methylthio)-1H-benzimidazole], the activity at 10 µM [1] was 0 to 30%.
Work on `Cc1c(OCC(F)(F)F)ccnc1C[S+]([O-])c1nc2ccccc2[nH]1` (stereo not drawn) [Compound 8, lansoprazole, reference compound] yielded an activity at 10 µM [1] greater than 100%.
Compound `Cc1c(OCC(F)(F)F)ccnc1CSc1nc2ccccc2[nH]1` [Compound 9, lansoprazole sulfide] has an activity at 10 µM [1] of 70 to 100%.
`Cc1c(OCC(F)(F)F)ccnc1CS(=O)(=O)c1nc2ccccc2[nH]1` [Compound 10, lansoprazole sulfone] was tested, and the activity at 10 µM [1] was 0 to 30%.
In the case of `Cc1c(OCC(F)(F)F)cc[n+]([O-])c1C[S+]([O-])c1nc2ccccc2[nH]1` (stereo not drawn) [Compound 11, lansoprazole N-oxide], the activity at 10 µM [1] is reported as 70 to 100%.
In the case of `Sc1nc2ccccc2[nH]1` [Compound 12, 2-mercaptobenzimidazole], the activity at 10 µM is reported as 0 to 30%.
For `Cn1c(S)nc2ccccc21` [Compound 13, 1-methyl-1H-benzimidazole-2-thiol], the activity at 10 µM [1] was 0 to 30%.
Compound `COc1ccnc(C[S+]([O-])c2nc3cc(OC(F)F)ccc3[nH]2)c1OC` (stereo not drawn) [Compound 14, pantoprazole, reference compound] has an activity at 10 µM [1] of 70 to 100%.
In the case of `COc1ccnc(CSc2nc3cc(OC(F)F)ccc3[nH]2)c1OC` [Compound 15, pantoprazole sulfide], the activity at 10 µM [1] is reported as 0 to 30%.
`COc1ccnc(CS(=O)(=O)c2nc3cc(OC(F)F)ccc3[nH]2)c1OC` [Compound 16, pantoprazole sulfone] was tested, and the activity at 10 µM [1] was 0 to 30%.
For `COc1cc[n+]([O-])c(C[S+]([O-])c2nc3cc(OC(F)F)ccc3[nH]2)c1OC` (stereo not drawn) [Compound 17, pantoprazole N-oxide], the activity at 10 µM [1] was 70 to 100%.
Compound `FC(F)Oc1ccc2nc(S)[nH]c2c1` [Compound 18, 5-difluoromethoxy-2-mercaptobenzimidazole] has an activity at 10 µM [1] of 0 to 30%.
For `COCCCOc1ccnc(C[S+]([O-])c2nc3ccccc3[nH]2)c1C` (stereo not drawn) [Compound 19, rabeprazole, reference compound], the activity at 10 µM [1] was greater than 100%.
`COCCCOc1ccnc(CSc2nc3ccccc3[nH]2)c1C` [Compound 20, rabeprazole sulfide] showed an activity at 10 µM [1] greater than 100%.
With `COCCCOc1ccnc(CS(=O)(=O)c2nc3ccccc3[nH]2)c1C` [Compound 21, rabeprazole sulfone] the activity at 10 µM [1] was 0 to 30%.
With `COCCCOc1cc[n+]([O-])c(C[S+]([O-])c2nc3ccccc3[nH]2)c1C` (stereo not drawn) [Compound 22, rabeprazole N-oxide] the activity at 10 µM [1] was 70 to 100%.
`Cc1cccc2[nH]c(=S)[nH]c12` [Compound 24, 4-methyl-1H-benzimidazole-2-thiol] showed an activity at 10 µM [1] of 0 to 30%.
`O=S(=O)(O)c1ccc2[nH]c(=S)[nH]c2c1` [Compound 25, 2-sulfanyl-1H-benzimidazole-5-sulfonic acid] showed an activity at 10 µM [1] of 0 to 30%.
In the case of `O=c1[nH]c2ccc(Cl)cc2[nH]1` [Compound 26, 5-chloro-1,3-dihydrobenzimidazol-2-one], the activity at 10 µM [1] is reported as 0 to 30%.
With `O=C1Cc2cc(O)ccc2N1` [Compound 27, 5-hydroxyindolin-2-one] the activity at 10 µM [1] was 0 to 30%.
For `O=c1[nH]c2c(Cl)c(Cl)c(Cl)cc2o1` [Compound 28, 4,5,6-trichloro-3H-a,3-benzoxazol-2-one], the activity at 10 µM [1] was 0 to 30%.
`COc1ccc2[nH]c(=O)oc2c1` [Compound 29, 6-methoxybenzo[d]oxazol-2(3H)-one] showed an activity at 10 µM [1] of 30 to 70%.
Compound `O=[N+]([O-])c1ccc2[nH]c(=S)[nH]c2c1` [Compound 30, 2-mercapto-5-nitrobenzimidazole] has an activity at 10 µM [1] of 0 to 30%.
Compound `O=c1[nH]c2cc(Cl)c(O)cc2o1` [Compound 31, 6-hydroxychlorzoxazone] has an activity at 10 µM [1] of 0 to 30%.
In the case of `S=c1[nH]c2ccc(Cl)cc2[nH]1` [Compound 32, 5-chloro-2-mercaptobenzimidazole], the activity at 10 µM [1] is reported as 70 to 100%.
Compound `S=c1[nH]c2cc3ccccc3cc2[nH]1` [Compound 33, 1,3-dihydrobenzo[f]benzimidazole-2-thione] has an activity at 10 µM [1] of 0 to 30%.
In the case of `COc1cc2nc(S)[nH]c2cc1OC` [Compound 34, 5,6-dimethoxy-1H-benzo[d]imidazol-2-thiol], the activity at 10 µM [1] is reported as 0 to 30%.
